The text below walks through data of patent US20200268832A1, “COMPOSITIONS FOR DELIVERY TO AND TREATMENT OF ATHEROSCLEROTIC PLAQUES” (Sanford Burnham Prebys Medical Discovery Institute, priority 2015, published 2020).

Assay [1] concerns the target T1, p32 protein (Homo sapiens, UniProt Q07021).
T1 construct: 6xHis; host or cells: Rosetta-gami-2 cells (Novagen); an E. coli strain by own knowledge
T1 sequence (Q07021 74-282): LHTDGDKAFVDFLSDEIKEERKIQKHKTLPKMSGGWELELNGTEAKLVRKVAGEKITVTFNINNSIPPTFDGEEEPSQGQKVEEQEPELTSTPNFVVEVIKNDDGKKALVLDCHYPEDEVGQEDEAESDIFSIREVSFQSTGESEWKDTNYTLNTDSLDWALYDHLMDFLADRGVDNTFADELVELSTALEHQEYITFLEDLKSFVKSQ
The assay is described as follows: Fluorescence polarization assay: displacement of FAM-TT1 from p32 (HTS, dose response, unlabeled peptide competition). In kind it is binding. To be noted: for inhibition at 25 µM: high-throughput screen hits, inhibition of TT1-p32 interaction, library compounds 25 μM (Table 1), b410 says 100 μM; for inhibition at 100 µM: highest concentration used, read-out: inhibition of FAM-TT1 binding to p32 in FP assay; for dose-dependent inhibition of FAM-TT1 binding to p32: 8.25 μM to 100 μM. As for the experimental part:
Fluorescence polarization (FP)-based assay was used for solution-based screening of compound libraries for p32 binding compounds. […] In FP assay, peptide conjugated with a fluorescent label (fluorescein-AM, FAM) is excited with polarized light. […] 6×-His-Tagged p^32 was expressed in Rosetta-gami-2 cells (Novagen). The protein was purified by IMAC using HIS-select resin (Sigma) with an imidizole gradient from 20-300 mM and eluted fractions were analyzed on analytical SDS-PAGE. […] Fluorescence polarization is given as milli-polarization (mP) value, which is obtained from equation (1):
mP=1000*(S−P)/(S+P), (Eq. 1)
(§1) The assay was initially set up in 20 μl well volume in 384 well plate (Corning Life Sciences), and measurements were carried out using PheraStar FS plate reader (BMG LABTECH, Ortenberg, Germany) in quadruplicate. Peptide and protein stock solutions were diluted to desired concentration with assay buffer (50 mM BIS-TRIS pH 7.4, 0.05% Tween20, 1 mM DTT). FAM-labeled peptides were protected from light during the experiment to avoid photobleaching. Optimal concentration of fluorescein (FAM) labeled-peptides for the assay was determined by measuring the limit of detection (LOD), signal-to-background ratio (S/B), and stability of mP value over series of peptide concentrations. In the binding assay, the concentration of FAM-peptide was kept constant, and the FP was measured over the range of target protein concentrations. The peptide dissociation constant (KD) was obtained by fitting the binding curve into Michaelis-Menten kinetics in GraphPad Prism-software (GraphPad Software, Inc., CA, USA).
FAM-TT-1 and p32 solutions are prepared just before experiment, and stored on ice during the screen; the peptide is shielded from light. • 1. […] Dispense 1.5 μL of assay buffer (50 mM BIS-TRIS pH 7.4, 0.05% Tween 20, 1 mM DTT) into columns 1-4 • 3. […] Dispense 37.5 nL of compounds (2 mM) into columns 5-44 • 5. Spin plate • 6. Incubate 20 min • 7. Dispense 1.5 μL FAM-TT-1 peptide (20 nM) into all columns • 8. Shake plate and spin plate • 9. Incubate 25 min • 10. Read plate on PheraStar FS
Chemical library of ˜50,000 compounds from ChemBridge (San Diego, Calif.) was screened in High-Throughput Screening Facility at Conrad Prebys Center for Chemical Genomics (Sanford-Burnham Medical Research Institute, La Jolla, Calif.). […] Peptide and protein were diluted immediately prior to screening, kept on ice during screening, and FAM-peptide was protected from light throughout the experiment. […]
On the technique in general: In fluorescence polarisation assays a small probe gives low polarisation when free and higher when bound to something large.

The target in assay [2] is T2, b1b2 domain of neuropilin-1 (NRP-1) (Homo sapiens, UniProt O14786).
T2 sequence (O14786 273-586 limits assumed): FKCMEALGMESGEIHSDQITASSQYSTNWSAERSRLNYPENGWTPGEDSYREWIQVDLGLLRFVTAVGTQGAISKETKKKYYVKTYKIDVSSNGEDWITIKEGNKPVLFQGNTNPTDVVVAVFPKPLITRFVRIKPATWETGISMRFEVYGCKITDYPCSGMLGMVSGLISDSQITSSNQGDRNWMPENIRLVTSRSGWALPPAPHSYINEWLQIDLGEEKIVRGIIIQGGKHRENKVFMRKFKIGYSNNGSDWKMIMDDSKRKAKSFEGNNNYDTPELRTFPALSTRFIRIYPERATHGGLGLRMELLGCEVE
Kind of assay: Fluorescence polarization binding of FAM-peptide to NRP-1. As for the experimental part: FIG. 8 is a graph showing specificity of TT1 binding. Specificity of TT1 was further evaluated by measuring the binding of FAM-TT1 to recombinant non-target protein, b1b2 domain of neuropilin-1 (NRP-1). The binding was studied by fluorescence polarization. […] Each data point presents average±S.D., n=4-6.
as §1, with “USA). […]” for “USA).”

In a further assay the target is T3, b1b2 domain of NRP-1 (Homo sapiens, UniProt O14786).
T3 sequence (O14786 273-586 limits assumed): T2 sequence (O14786 273-586 limits assumed)
Kind of assay: Fluorescence polarization displacement of FAM-RPARPAR from NRP-1. The assay is classed as binding. The settings on record: for effect on RPARPAR peptide binding to NRP-1: specificity assay, up to 100 μM. Here is the method:
Results of the high-throughput screen were confirmed in dose response tests. 8.25 μM to 100 μM dilutions of the compounds that displaced FAM-peptide from p32 were used in competition with FAM-peptide as described in previous section. Specificity of the hit compounds was verified by examining their binding to a different protein, b1b2 domain of NRP-1 (Vander Kooi et al., Proc. Natl. Acad. Sci. U.S.A., 10.1073/pnas.0700043104). Experimental method for NRP-1 b1b2 was developed and validated similarly to p32, using FAM-RPARPAR peptide as a known peptide ligand for NRP-1. The displacement of FAM-RPARPAR from NRP-1 protein by the hit compounds was studied in 384-well format, as described above.

Assay [3] has as its target T1, p32 protein. Kind of assay: TT1 phage binding inhibition assay (ELISA-type). To be noted: 100 μM compound. Here is the method: The binding of individual phage to p32 was verified using ELISA-type of phage binding assay. 96-well plates (Corning Life Sciences, Tewksbury, Mass., USA) were coated with 100 μL of 5 μg/mL p32 in PBS at 4° C. overnight, washed 3 times with 200 μL of PBST (PBS+0.05% Tween-20), blocked with 200 μL of 0.5% bovine serum albumin (BSA) in PBST for 1 h at 37° C., and washed 3 times with PBST. Phages (1.11*10^8 pfu in 100 μL PBST) were added to p32-coated/BSA-blocked wells, the plate was incubated at 4° C. overnight, and washed 3 times with PBST. Subsequently, the plates were incubated with 100 μL in-house prepared polyclonal rabbit anti-T7 antibody diluted 1:1000 in PBST for 1 h at 4° C., and washed 3 times with washing buffer. Horseradish peroxidase (HRP)-labeled anti-rabbit IgG (Sigma-Aldrich) was diluted 1:1000 in PBS, and 100 μL was added to the wells, followed by 1 h incubation at 4° C. and washing 3 times. Next, 100 μL of OPD silver and gold substrate (Sigma-Aldrich) was added to the wells and incubated at room temperature until visible color was observed (<30 min). The reaction was stopped by adding 50 μL of 1M H2SO4, and the plate was read at 492 nm (Varioskan Flash, Thermo Scientific, Waltham, Mass., USA).
The ability to inhibit TT1-phage binding to p32 protein was used as a secondary assay to verify the hit compounds. The competition assay was based on the phage binding assay described above with minor modifications. ELISA plates were coated with 2.5 μg/mL p32, incubated with phages (1.11*10^8 pfu in 100 μL PBST) and 100 μM hit compounds at 4° C. overnight, and followed by antibody incubation and chromogenic reaction. Negative controls included DMSO at concentration it was used to dissolve the hit compounds.
A general note: ELISA stands for enzyme-linked immunosorbent assay.

Another assay has as its system atherosclerotic plaques. Kind of assay: Plaque homing of FAM-labeled peptides in ApoE null mice on high-fat diet. The settings on record: 100 μg FAM-labeled peptide IV, one hour.
The target in assay [4] is T1, p32 protein. The assay is described as follows: NMR 1D 1H-aliph spectra of p32 with compounds. To be noted: 5 μM p32; compounds 100 and 500 μM; TT1 70 μM. The assay is classed as binding. Here is the method:
FIGS. 3A and 3B are graphs showing NMR based evaluation of binding of compounds 4014008 and 7933989 to P32 protein. The ID ^1H-aliph spectra of 5 μM P32 in the absence (bottom) and presence of compounds #4014008 (A) and #7933989 (B) at 100 μM (second from bottom) and 500 μM (second from top) were collected. As a control, the spectrum of p32 in the presence of the known peptide binder, TT1 at 70 μM, was also collected (top).
All the NMR experiments were carried out on a Bruker Avance 700 spectrometer equipped with a TCI cryoprobe at T=293 K. For structure determinations, the peptide concentration was 100 μM in the NMR buffer in presence of 150 μM of ZnCl2. One-dimensional (1D) 1H spectra were acquired with a spectral width of 8417.51 Hz, relaxation delay 1.0 s, 8 k data points for acquisition and 16 k for transformation.

Entries after “also recorded” stand apart in the source; their conditions may differ. Bridges are numbered along the chain shown (N, C = ends). Where no end group is shown, it is not given here. FAM = 5(6)-carboxyfluorescein; Ahx = NCCCCCC(=O)O

From the text for atherosclerotic plaques: One hour later, the mice can be perfused through the heart under anesthesia, and tissues were collected. Accumulation of FAM-labeled peptides can be visualized with UV excitation. Atherosclerotic aortas can be sectioned at the aortic root level, and examined by confocal microscopy. […] CD31 staining can be used to visualize the endothelium over the plaque.
One hour later, the mice were perfused through the heart under anesthesia, and tissues were collected. Accumulation of FAM-labeled peptides was visualized with UV excitation. Atherosclerotic aortas were sectioned at the aortic root level, and examined by confocal microscopy. […] CD31 staining was used to visualize the endothelium over the plaque.

RPARPAR [reference compound]: in the assay with p32 protein [1] (unlabeled peptides titrated up to 100 μM), the “inhibition (dislocation) of FAM-TT1 binding to p32 by unlabeled peptide” value was “not and did not dislocate FAM-TT1”. In addition, the “binding to b1b2 domain of NRP-1” value in assay [2] was “showed strong affinity”.
As a reminder, the inhibition is how much of the control response was suppressed. As to `Cc1ccc(-c2cnc(N)c(N3CCC(O)C3)n2)c(-n2cccn2)c1` (centres unmarked) [Compound 88361068, 1-{3-amino-6-[4-methyl-2-(1H-pyrazol-1-yl)phenyl]pryazin-2-yl}pyrrolidin-3-], at p32 protein [1], testing at 25 µM gave an inhibition of 30.8% and the inhibition at 100 µM lay in the range of 65 to 75%. The “effect on RPARPAR peptide binding to NRP-1” value (from here on “effect”) on b1b2 domain of NRP-1 was “no effect”. Testing at 100 µM on p32 protein [3] gave an inhibition of 20%.
For the compound “FAM-TT1: FAM-labeled TT1 peptide, 5(6)-carboxyfluorescein with 6-aminohexanoic acid spacer ({FAM-Ahx}-CKRGARSTC; disulfide 1-9 (inferred))”, the “binding to b1b2 domain of NRP-1” value in assay [2] is reported as “did not show binding”. Moreover, the “homing to atherosclerotic plaques” value with atherosclerotic plaques was “signal was seen inside plaques”.
On to “FAM-LyP-1: FAM-labeled LyP-1 peptide (CGNKRTRGC; disulfide 1-9 (inferred); not fully specified (N-terminus))”, for which the “homing to atherosclerotic plaques” value in the assay on atherosclerotic plaques is recorded as “signal was seen inside plaques”.
For `Cc1nc2nc3c(cn2n1)C(=O)CC(c1cccs1)C3` (centres unmarked) [Compound 9132086, 2-methyl-6-(2-thienyl)-6,7-dihydro[1,2,4]triazolo [5,1-b]quinazolin-8(5H)-one], at p32 protein [1], the inhibition at 25 µM stood at 20.7% and the inhibition at 100 µM lay within 65 to 75%. Also, the “effect” value on b1b2 domain of NRP-1 is “no effect”. On p32 protein [3], this compound gave an inhibition at 100 µM of 20%.
As for `Nc1nccc(N2CCC(C3CCN(Cc4cccnc4)CC3)C2)n1` (centres unmarked) [Compound 54778828, 4-{3-[1-(3-pyridinylmethyl)-4-piperidinyl]-1-pyrrolidinyl}-2-pyrimidinami], on p32 protein [1], the “dose-dependent inhibition of FAM-TT1 binding to p32” value is listed as “only marginally active” and at 25 µM the inhibition was 29.4%.
As for `CC1(C)CN=C(NCCNC2=NCC(C)(C)S2)S1` [Compound 7933989], at p32 protein [1], the inhibition at 25 µM is 40.5% and the inhibition at 100 µM turned out to be 80%. Moreover, the “effect” value on b1b2 domain of NRP-1 is listed as “no effect”. At p32 protein [3], this compound gave an inhibition at 100 µM of 75%. Further, at p32 protein [4], the “perturbations in 1D 1H-aliphatic spectra of p32” value is “caused similar perturbations; also recorded: shift in the peak at around −0.3 ppm”.
Consider `Cc1c(O)ccc2c(C(F)(F)F)cc(=O)oc12` [Compound 6367577, 7-hydroxy-8-methyl-4-(trifluoromethyl)-2H-chromen-2-one], for which, at p32 protein [1], the “dose-dependent inhibition of FAM-TT1 binding to p32” value is recorded as “less effective than the other active compounds” and at 25 µM the inhibition was 39.5%. Moreover, the “FP level in the presence of compound” value on b1b2 domain of NRP-1 (highest concentration) was “negative value”.
As for `CN1CCc2onc(-c3ccc(F)c(F)c3)c2C1` [Compound 91984046], 25 µM produced 22.5% inhibition on p32 protein [1]. The inhibition at 100 µM at p32 protein [1] was 65 to 75%; at p32 protein [3] it was 20%.
